{
  "source": "paper PMC5538713",
  "about": "“RORγt and RORα signature genes in human Th17 cells” (PLoS ONE, 2017)",
  "key": {"Aa2": {"test_system": "Aa2", "assay": "Cerep selectivity panel", "assay_type": "binding"}, "Aa1": {"test_system": "Aa1", "assay": "Cerep selectivity panel", "assay_type": "binding"}, "5HT1A (h)": {"target": "T1, 5HT1A (h) (Homo sapiens, UniProt P08908)", "T1 construct": "purchased Cerep", "T1 sequence (P08908 whole entry)": "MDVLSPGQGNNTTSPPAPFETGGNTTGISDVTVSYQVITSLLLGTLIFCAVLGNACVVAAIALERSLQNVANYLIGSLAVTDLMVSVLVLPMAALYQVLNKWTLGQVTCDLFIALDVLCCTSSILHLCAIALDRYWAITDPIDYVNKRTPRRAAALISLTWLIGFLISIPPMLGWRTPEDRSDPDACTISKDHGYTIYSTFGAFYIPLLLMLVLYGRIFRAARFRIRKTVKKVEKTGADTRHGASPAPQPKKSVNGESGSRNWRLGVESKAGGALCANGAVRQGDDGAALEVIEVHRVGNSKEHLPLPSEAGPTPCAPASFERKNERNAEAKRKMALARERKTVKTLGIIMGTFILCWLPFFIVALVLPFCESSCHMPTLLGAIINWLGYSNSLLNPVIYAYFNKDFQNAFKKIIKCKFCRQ", "assay": "Cerep selectivity panel", "assay_type": "binding", "how_it_was_run": "(§1)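 Off-target profiling within a commercial panel of 50 receptors, ion channels and transporters; each compound was tested at 1 µM and 10 µM.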"}, "VIP 1 (h)": {"target": "T2, VIP 1 (h) (Homo sapiens, UniProt P32241)", "T2 construct": "purchased Cerep", "T2 sequence (P32241 31-457)": "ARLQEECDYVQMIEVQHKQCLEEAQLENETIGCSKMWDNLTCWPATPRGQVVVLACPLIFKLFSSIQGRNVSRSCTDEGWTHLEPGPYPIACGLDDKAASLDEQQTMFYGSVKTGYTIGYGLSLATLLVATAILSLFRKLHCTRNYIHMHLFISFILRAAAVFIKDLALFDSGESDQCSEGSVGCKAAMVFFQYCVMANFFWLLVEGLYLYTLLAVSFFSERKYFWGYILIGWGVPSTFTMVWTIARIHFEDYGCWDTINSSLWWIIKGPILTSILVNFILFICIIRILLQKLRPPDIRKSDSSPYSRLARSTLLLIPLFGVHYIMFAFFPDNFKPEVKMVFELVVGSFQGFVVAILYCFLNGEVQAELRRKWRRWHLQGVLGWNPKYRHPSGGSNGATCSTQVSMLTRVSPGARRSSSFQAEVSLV", "assay": "Cerep selectivity panel", "assay_type": "binding", "how_it_was_run": "as §1"}, "5HT1B": {"target": "T3, 5HT1B (Rattus norvegicus, UniProt P28564)", "T3 construct": "purchased Cerep", "T3 sequence (P28564 whole entry)": "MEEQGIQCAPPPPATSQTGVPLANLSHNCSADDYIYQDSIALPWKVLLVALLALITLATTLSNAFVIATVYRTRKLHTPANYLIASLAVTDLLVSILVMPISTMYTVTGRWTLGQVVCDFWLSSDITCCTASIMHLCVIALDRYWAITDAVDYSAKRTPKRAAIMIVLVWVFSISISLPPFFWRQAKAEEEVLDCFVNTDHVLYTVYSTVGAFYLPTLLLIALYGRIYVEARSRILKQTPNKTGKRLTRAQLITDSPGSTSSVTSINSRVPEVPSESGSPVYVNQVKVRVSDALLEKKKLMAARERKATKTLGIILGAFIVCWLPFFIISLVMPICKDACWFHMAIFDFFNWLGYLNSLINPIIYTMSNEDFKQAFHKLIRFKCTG", "assay": "Cerep selectivity panel", "assay_type": "binding", "how_it_was_run": "as §1"}, "GAL2 (h)": {"target": "T4, GAL2 (h) (Homo sapiens, UniProt O43603)", "T4 construct": "purchased Cerep", "T4 sequence (O43603 whole entry)": "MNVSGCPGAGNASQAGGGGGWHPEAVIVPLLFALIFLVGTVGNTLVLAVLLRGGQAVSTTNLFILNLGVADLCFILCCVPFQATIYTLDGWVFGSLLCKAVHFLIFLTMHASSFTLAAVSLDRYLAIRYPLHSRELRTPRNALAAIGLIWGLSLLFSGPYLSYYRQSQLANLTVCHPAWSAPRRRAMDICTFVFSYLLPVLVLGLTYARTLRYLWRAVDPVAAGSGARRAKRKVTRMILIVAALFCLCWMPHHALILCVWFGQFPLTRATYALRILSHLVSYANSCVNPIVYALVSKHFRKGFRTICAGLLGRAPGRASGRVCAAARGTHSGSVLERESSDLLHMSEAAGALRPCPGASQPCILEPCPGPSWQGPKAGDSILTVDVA", "assay": "Cerep selectivity panel", "assay_type": "binding", "how_it_was_run": "as §1"}, "RORγ/γt LBD": {"target": "T5, RORγ/γt LBD (Homo sapiens, UniProt P51449)", "T5 construct": "made in house; host or cells: E. coli BL21DE3 GOLD, pET24a", "T5 sequence (P51449 258-518)": "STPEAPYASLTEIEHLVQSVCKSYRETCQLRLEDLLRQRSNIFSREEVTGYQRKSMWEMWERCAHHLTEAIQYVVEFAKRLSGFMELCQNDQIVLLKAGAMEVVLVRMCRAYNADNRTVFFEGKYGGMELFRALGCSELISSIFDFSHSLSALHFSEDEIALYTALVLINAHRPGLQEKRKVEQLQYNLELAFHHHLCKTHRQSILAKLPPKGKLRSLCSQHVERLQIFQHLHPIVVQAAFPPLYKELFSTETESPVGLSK", "assay": "ThermoFluor binding assay, RORγ/γt LBD", "settings": "recombinant human LBD; read-out: ThermoFlour Binding Assay (Kd, nM) RORγ/γt", "quoted_text": "Recombinant human RORγ, RORα and RORβ LBD proteins were prepared for ThermoFlour binding assay. […] All recombinant proteins contained an additional amino acid sequence of [sequence] at the N-terminal of LBD. After transformation of the bacteria strain BL21DE3 GOLD (Agilent) with the plasmids, 10 to 20 L cultures were grown to 1 OD and recombinant protein expression was induced overnight at 16°C with 0.2mM isopropyl-beta-D-thiogalactopyranoside (IPTG) (Corning). […] His-tagged proteins were collected with Ni-NTA resin (Qiagen) and purified with a HiTrap Q HP column (GE Life Sciences) eluted with a 40 CV gradient of 50-500mM NaCl.\nThe ThermoFluor® assay was established to measure the change in protein stability upon binding with compounds. 1-Anilinonaphthalene-8-Sulfonic Acid (1,8-ANS) (Invitrogen) was used as a fluorescent dye to label the test proteins. […] Assay plates were robotically loaded onto a thermostatically controlled PCR-type thermal block and then heated at a ramp-rate of 1°C/min. Fluorescence emission was initiated by continuous illumination with UV light (LC6, Hamamatsu) via fiber optic with a band-pass filter (380–400 nm) and detected with a CCD camera (Sensys, Roper Scientific) filtered to detect signal of 500 ± 25 nm. […]"}, "human RORγt LBD": {"target": "T6, human RORγt LBD (Homo sapiens, UniProt P51449)", "T6 construct": "expressed in transfected cells; host or cells: HEK293T", "T6 sequence (P51449 269-508 limits assumed)": "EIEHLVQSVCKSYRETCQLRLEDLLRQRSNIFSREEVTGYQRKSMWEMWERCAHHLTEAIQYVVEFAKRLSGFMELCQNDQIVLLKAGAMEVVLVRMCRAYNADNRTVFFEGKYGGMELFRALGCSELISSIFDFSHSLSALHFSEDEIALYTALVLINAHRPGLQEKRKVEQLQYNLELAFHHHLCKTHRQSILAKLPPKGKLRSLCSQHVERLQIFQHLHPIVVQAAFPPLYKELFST", "assay": "RORγt cellular reporter assay (GAL4-RORγt LBD luciferase, HEK293T)", "assay_type": "cell-based", "settings": "24 hours, read-out: RORγ/γt Cellular Reporter Assay (IC50)", "experimental": "Media was removed and cells were lysed with 50 μL 1x Glo Lysis Buffer (Promega). […] To calculate the effect of compounds on RORγt activity, the ratio of firefly to renilla luciferase was determined and plotted against compound concentration. Agonist compounds increase RORγt-driven luciferase expression, and antagonist or inverse agonist compounds decrease luciferase expression. IC50 values were determined using Graphpad Prism."}, "CCKA (h)": {"target": "T7, CCKA (h) (Homo sapiens, UniProt P32238)", "T7 construct": "purchased Cerep", "T7 sequence (P32238 whole entry)": "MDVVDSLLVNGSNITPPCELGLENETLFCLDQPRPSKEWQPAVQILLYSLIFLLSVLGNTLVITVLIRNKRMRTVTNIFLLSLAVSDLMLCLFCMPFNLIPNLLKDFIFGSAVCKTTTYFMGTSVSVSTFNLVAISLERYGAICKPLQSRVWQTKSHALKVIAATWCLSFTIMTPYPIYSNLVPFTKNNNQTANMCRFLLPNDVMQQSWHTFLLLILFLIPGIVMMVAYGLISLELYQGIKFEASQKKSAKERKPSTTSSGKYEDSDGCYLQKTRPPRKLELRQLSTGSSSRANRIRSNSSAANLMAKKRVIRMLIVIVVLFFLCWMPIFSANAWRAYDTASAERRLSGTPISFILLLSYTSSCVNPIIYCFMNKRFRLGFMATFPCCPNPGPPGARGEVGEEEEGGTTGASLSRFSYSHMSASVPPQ", "assay": "Cerep selectivity panel", "assay_type": "binding", "how_it_was_run": "as §1"}, "H2 (h)": {"target": "T8, H2 (h) (Homo sapiens, UniProt P25021)", "T8 construct": "purchased Cerep", "T8 sequence (P25021 whole entry)": "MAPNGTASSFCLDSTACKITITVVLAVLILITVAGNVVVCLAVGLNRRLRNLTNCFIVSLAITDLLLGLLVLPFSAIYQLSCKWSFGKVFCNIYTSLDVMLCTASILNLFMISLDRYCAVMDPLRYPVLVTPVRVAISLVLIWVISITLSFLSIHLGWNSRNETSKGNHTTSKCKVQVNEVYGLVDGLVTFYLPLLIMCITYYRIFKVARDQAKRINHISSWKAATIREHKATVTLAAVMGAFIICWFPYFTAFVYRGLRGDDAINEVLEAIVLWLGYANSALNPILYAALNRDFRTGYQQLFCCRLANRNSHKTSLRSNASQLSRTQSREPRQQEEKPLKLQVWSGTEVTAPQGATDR", "assay": "Cerep selectivity panel", "assay_type": "binding", "how_it_was_run": "as §1"}, "IL-17A transcripts": {"test_system": "IL-17A transcripts", "assay": "RT-PCR of IL-17A transcripts in human CD4 T cells during Th17 differentiation", "assay_type": "cell-based", "settings": "0.5 μM compound", "experimental": "Human CD4 T cells from 2 healthy donors were used in studies. […]\nFor compound treatment, CD4 T cells were pre-treated with compounds or DMSO vehicle control at 37°C for 1 hour before T cell activation.\nFor siRNA treatment, three RORγt siRNAs, two RORα siRNAs, two control siRNAs were tested at 1 μM, and mock transfected samples were included as controls (S1 Table). siRNA treatment was performed by Amaxa electroporation of human CD4 T cells with siRNAs. Human CD4 T cells were taken up in 100 μL Nucleofector solution (P3 primary cell 4D Nucleofector Kit, reference V4XP-3024, Amaxa Biosciences) at 5.0 × 10^6 cells/100 μL. Cell suspensions were transfected with siRNA by electroporation using the FI-115 program in the Amaxa 4D-Nucleofector. T cells after electroporation were rinsed with 500 μL culture medium, transferred to 24-well culture plates and kept at 37°C cell incubator before use in T cell assays. It was noticed that Amaxa electroporation caused an increased expression of some genes in human T cells and this elevated gene expression lasted up to 8 hours after electroporation. To avoid gene expression study interfered by electroporation, human CD4 T cells were rested in culture medium at 37°C for 8 hours after siRNA electroporation before the use of these cells to initiate Th17 differentiation for transcriptome profile.\nT cells after compound or siRNA treatments were stimulated with anti-CD3/anti-CD28 coated beads (Miltenyi Biotech) at 2:1 bead to cell ratio in culture medium containing 10 ng/ml IL1β (R&D), 10 ng/ml IL23 (R&D), 30 ng/ml TGFβ1 (R&D), 10 μg/ml of anti-IL4 and anti-IFNγ (eBioscience). T cell cultures were collected at different time points for RNA extraction and gene expression studies.\nExpression of RORα, RORγt and IL-17A genes in siRNA or compound treated human Th17 cells was measured by quantitative RT-PCR using the TaqMan RNA-to-Ct 1 step kit (Applied Biosystems) following the manufacturer’s instructions. […]\nPCR results were analyzed with the ddCT algorithm to generate data on relative quantitation and changes in gene expression."}, "RORγt transcripts": {"test_system": "RORγt transcripts", "assay": "RT-PCR of RORγt transcripts in human CD4 T cells during Th17 differentiation", "assay_type": "cell-based", "settings": "0.1 and 0.5 μM, throughout the time course (2 hours to 6 days)", "quoted_text": "Human CD4 T cells from 2 healthy donors were used in studies. 5.0 × 10^6 human CD4 T cells were used per sample and cell samples were collected at 0, 24 and 48 hours of Th17 differentiation for gene expression studies with RNA-Seq and RT-PCR.\nExpression of RORα, RORγt and IL-17A genes in siRNA or compound treated human Th17 cells was measured by quantitative RT-PCR using the TaqMan RNA-to-Ct 1 step kit (Applied Biosystems) following the manufacturer’s instructions. […] Real time PCR was performed using 600ng total RNA as template in the ABI PRISM 7500 Sequence Detection System (Applied Biosystems), with reaction starting at 48°C for 15 minutes, then 10 minutes at 95°C, followed by 40 cycles of 15 seconds at 95°C and 1 minute at 60°C.\nPCR results were analyzed with the ddCT algorithm [34] to generate data on relative quantitation and changes in gene expression."}},
  "data": [
    {"smiles": "COc1nc2ccc([C@@](O)(c3ccc(C)nc3C)c3cnnn3C)cc2c(Cl)c1Cc1ccc(C(F)(F)F)cc1", "note": "[compound A]", "values": [
      {"measurement": "% Inhibition at 10µM", "setting": "Aa2", "value": 7, "unit": "%"},
      {"measurement": "% Inhibition at 1µM", "setting": "Aa1; 1 µM", "value": 8, "unit": "%"},
      {"measurement": "% Inhibition at 10µM", "setting": "Aa1; 10 µM", "value": 5, "unit": "%"},
      {"measurement": "inhibition at 1 µM", "setting": "5HT1A (h); 1 µM", "value": 14, "unit": "%"},
      {"measurement": "inhibition at 10 µM", "setting": "5HT1A (h); 10 µM", "value": 19, "unit": "%"},
      {"measurement": "inhibition at 1 µM", "setting": "VIP 1 (h)", "value": 3, "unit": "%"},
      {"measurement": "inhibition at 10 µM", "setting": "5HT1B", "value": 1, "unit": "%"}
    ]},
    {"smiles": "COc1nc2ccc([C@](O)(c3ccc(Cl)cc3)c3cncn3C)cc2c(Cl)c1Cc1ccc(-n2cccn2)cc1", "note": "[B]", "values": [
      {"measurement": "inhibition at 10 µM", "setting": "GAL2 (h)", "value": 1, "unit": "%"}
    ]},
    {"smiles": "COc1nc2ccc([C@@](O)(c3ccccc3)C3CCN(C(C)=O)CC3)cc2c(Cl)c1Cc1ccc(-n2cccn2)cc1", "note": "[C]", "values": [
      {"measurement": "Kd", "setting": "RORγ/γt LBD", "value": 4.4, "unit": "nM"},
      {"measurement": "IC50", "setting": "human RORγt LBD", "value": 28.9, "unit": "nM"}
    ]},
    {"smiles": "CN(C)c1nc2ccc(C(O)(c3ccncc3)c3cncn3C)cc2c(Cl)c1-c1ccccc1", "note": "(stereo not shown) [compound D]", "values": [
      {"measurement": "inhibition at 1 µM", "setting": "CCKA (h)", "value": 11, "unit": "%"},
      {"measurement": "inhibition at 10 µM", "setting": "H2 (h)", "value": 5, "unit": "%"},
      {"measurement": "reduction of IL-17A transcripts", "setting": "IL-17A transcripts; 24 hours", "value": 79, "unit": "%"},
      {"measurement": "reduction of IL-17A transcripts", "setting": "IL-17A transcripts; 72 hours", "value": 73, "unit": "%"},
      {"measurement": "decrease of IL-17A transcripts", "setting": "IL-17A transcripts; day 6", "value": 67, "unit": "%"},
      {"measurement": "effect on RORγt expression in T cells", "setting": "RORγt transcripts", "value": "did not affect"}
    ]}
  ]
}
